In US20260347401A1, “Peptide Fragment And Use Thereof” (TOAGOSEI CO., LTD., priority 2023, published 2026):
FAM = 5(6)-carboxyfluorescein

Test system: NSC-34 cells
Test: Evaluation of cell membrane permeability by flow cytometry (fluorescence of FAM taken up by NSC-34 cells)
Assay type: cell-based, mouse
Conditions: for cell membrane permeability: peptide fragment, tested as FAM construct, conclusion in words; for median fluorescence intensity (MFI): 10 μM in culture solution, 0.50% DMSO, 37 °C, 5% CO2, flow cytometer detector FL2; for median fluorescence intensity (MFI) / MFI compared with Example 3 (FAM): 20 hours; for MFI compared with Example 3 (FAM): 10 μM, result in words
Method: As the eukaryotic cells, NSC-34 cells (mouse motor neuron-like hybrid cell line) were used and the cell membrane permeability of the prepared construct was evaluated.
The NSC-34 cell was cultured in 10% fetal bovine serum (FBS)-containing Dulbecco's modified Eagle's medium (DMEM (Cat No. 044-29765, manufactured by FUJIFILM Wako Pure Chemical Corporation)), which is a culture medium.
The NSC-34 cell that adhered to a culture plate was cleaned with PBS and then, a 0.25%-trypsin/EDTA solution was added thereto, and incubation was performed for three minutes at 37 °C. After the incubation, the aforementioned 10% FBS-containing DMEM was added to deactivate trypsin and then, five-minute centrifugal separation was performed at 150×g to precipitate the cells. After the supernatant generated by the centrifugal separation was removed, the 10% FBS-containing DMEM was added to the precipitate (cell pellet) to prepare a cell suspension of about 2×10^5 cells/mL. The cell suspension was added by 1 mL to a well of a commercially available six-hole (well) plate (manufactured by AGC TECHNO GLASS Co., Ltd.) so as to seed the cell (about 2×10^5 cells/well), and incubation was caried out for about two to three hours until the cell adhered to a bottom surface of the well. After that, the 2 mM sample solution 1 prepared as above was diluted with the 10% FBS-containing DMEM to prepare the sample solution 1 in which the concentration of the sample was 20 μM. Then, 1 mL of the 20 μM sample solution 1 was added to the well (that is, so that the concentration of the construct 1 became 10 μM and the DMSO concentration became 0.50% in the culture solution in the well). The cell was incubated for 20 hours at 37 °C under a 5% CO2 condition.
After the 20-hour incubation, the culture supernatant was removed from the well and the cells in the well were cleaned twice with 1 mL of PBS. Next, 100 μL of the 0.25% trypsin/EDTA solution was added to the well and the incubation was performed for three minutes at 37 °C. After the incubation, 900 μL of the 10% FBS-containing DMEM was added to the well to deactivate the trypsin. The cell suspension in the well was transferred to a tube and the cells were collected. After that, pre-washing was performed additionally, so that the cells remaining in the well were collected in the tube. This tube was subjected to five-minute centrifugal separation at 4 °C under a condition of 210×g. After the centrifugal separation, the supernatant was removed and the precipitate (cell pellet) was suspended (cleaned) with 1 mL of PBS, which was followed by the centrifugal separation under the same condition as that described above. Then, the supernatant was removed and thus, the cells (cell pellet) cultured in a culture medium containing the sample were obtained.
Regarding the obtained cells (cell pellet), the cell membrane permeability was analyzed using a flow cytometer. As the flow cytometer, On-Chip Flowcytometer (manufactured by On-Chip Biotechnologies Co., LTD.) was used.
For such an analysis, the obtained cell pellet was suspended with 50 μL of on-chip T buffer to prepare a cell suspension for analysis.
Using the aforementioned flow cytometer, gating based on forward scatter (FSC) and side scatter (SSC) was performed to set a gate about a cell group to be analyzed, and the fluorescence intensity was measured about the cell group in this gate. Note that the number of cells of the cell group to be analyzed was set to at least 10000, and the analysis was performed. The fluorescence intensity was measured using a fluorescence detector FL2 of the flow cytometer (optimum detection wavelength around 543 nm) capable of detecting the fluorescence wavelength of FAM. Regarding this measurement result, the analysis was performed using commercially available analysis software “FlowJo” (manufactured by TreeStar) to obtain median fluorescence intensity (MFI) of the cell group to be measured (see Table 1). […]

Row | Substance | cell membrane permeability | median fluorescence intensity (MFI) | MFI compared with Example 3 (FAM)
1 | VLSRVQLREKLTR [SEQ ID No.: 2, peptide fragment (synthetic peptide) having cell membrane permeability] | has the cell membrane permeability | – | –
2 | 5(6)-carboxyfluorescein [Example 3, reference compound] | – | 7.28 | –
3 | Ac-VLSRVQLREKLTR-FAM (Ac-VLSRVQLREKLTR-{FAM}) [Example 2] | – | 31.3 | higher
4 | Ac-VLSRVVQLLREKLTRKK-FAM [Example 1] | – | 30.4 | higher
5 | VLSRVVQLLREKLTRKK [SEQ ID No.: 1, peptide fragment (synthetic peptide) having cell membrane permeability] | has the cell membrane permeability | – | –
